Paper PMC8022280 (ChemMedChem, 2018)
pIC50: −log10 of the molar value.

Columns and labels:
[1] = target: T1, Wip1 (Homo sapiens, UniProt O15297); assay: Inhibition of Wip1 phosphatase activity toward the ATM; format: biochemical
T1 sequence (O15297 1-605): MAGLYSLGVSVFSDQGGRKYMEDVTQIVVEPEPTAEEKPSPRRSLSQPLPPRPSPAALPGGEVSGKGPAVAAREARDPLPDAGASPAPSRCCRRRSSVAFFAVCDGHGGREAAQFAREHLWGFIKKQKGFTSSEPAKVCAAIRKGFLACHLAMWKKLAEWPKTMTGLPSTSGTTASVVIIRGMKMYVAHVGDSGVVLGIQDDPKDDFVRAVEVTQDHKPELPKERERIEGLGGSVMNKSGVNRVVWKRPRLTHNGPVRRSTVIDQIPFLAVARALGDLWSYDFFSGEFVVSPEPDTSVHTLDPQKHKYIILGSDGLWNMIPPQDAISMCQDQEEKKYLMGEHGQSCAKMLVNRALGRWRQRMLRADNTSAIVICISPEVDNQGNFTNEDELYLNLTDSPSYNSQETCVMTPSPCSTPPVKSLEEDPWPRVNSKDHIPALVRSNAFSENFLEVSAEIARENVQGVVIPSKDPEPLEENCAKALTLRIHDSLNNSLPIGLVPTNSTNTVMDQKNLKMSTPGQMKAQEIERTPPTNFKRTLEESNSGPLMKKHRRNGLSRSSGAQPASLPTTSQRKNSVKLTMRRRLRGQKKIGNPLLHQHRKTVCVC

[2] = target: T1, Wip1; assay: Quantitative ELISA of γH2AX levels in MCF7 cells; format: cell-based; settings: no IR (Figure S2)

pIC50 [1]	increase in γH2AX levels in the absence of exposure to IR [2]	Compound
6.04	did not produce a detectable increase	COC(=O)[C@H](CCCCNC(=O)[C@H](CC1CCCCC1)NC(=O)c1cccs1)NC(=O)c1cccc(O)c1 [Compound 1, Methyl-N^6-((S)-3-cyclohexyl-2-(thiophene-2-carboxamido)propanoyl)-N^2-(3-hydroxybenzoyl)-L-lysinate]
–	did not produce a detectable increase	Cc1ncc(Cl)cc1NCc1ccc(C(=O)N[C@@H](CC2CCCC2)C(=O)NC2CC2)s1 [GSK2830371, reference compound]
